Where “and” joins values, the source holds several entries; their conditions need not be identical. Equal entries are not always repeated.
T1: KDM4A (Homo sapiens, UniProt O75164)
T1 construct: encoding human KDM4A residues 1–350 with a GST-6xHis tag at the N-terminal; GST-6xHis (followed by TEV cleavage site) (N, cleaved yes); made in house; host or cells: T7 Express E. coli
T1 sequence (O75164 1-350): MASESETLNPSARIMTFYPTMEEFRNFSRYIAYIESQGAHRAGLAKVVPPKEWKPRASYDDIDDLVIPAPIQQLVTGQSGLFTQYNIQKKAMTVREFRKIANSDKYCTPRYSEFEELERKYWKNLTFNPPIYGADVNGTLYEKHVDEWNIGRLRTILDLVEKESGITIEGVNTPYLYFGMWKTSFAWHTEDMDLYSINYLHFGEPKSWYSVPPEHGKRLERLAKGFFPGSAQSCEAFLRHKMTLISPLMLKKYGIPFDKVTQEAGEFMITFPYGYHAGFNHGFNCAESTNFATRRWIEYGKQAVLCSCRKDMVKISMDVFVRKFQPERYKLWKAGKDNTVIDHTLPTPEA

B1: KDM4A (Homo sapiens) (protein)
chain: T1 sequence (O75164 1-350)

What was measured:
KDM4A [1] = target: T1, KDM4A; experiment: Bio-layer interferometry (BLI) binding to biotinylated KDM4A; conditions: for Kd: BLI, 1:1 Langmuir global fit, 25 °C, 5% DMSO; for LE: ligand efficiency score; for LE / LLE: method of ref 58; for LLE: lipophilic ligand efficiency score
Source text: (§1) Bio-layer interferometry (BLI) was then used to determine the equilibrium dissociation constant (KD) for the binding event. QC6352 inhibitor [52] and N-[(2-Chloro-6-fluorophenyl)methyl]-2-(2,5-dioxo-4-phenyl-4-propylimidazolidin-1-yl)-N-methylacetamide were used as positive and negative control, respectively. […] Binding was also confirmed by Saturation-Transfer Difference (STD) NMR experiments (Additional file 1: Fig. S5).
Bio-layer Interferometry experiments Bio-layer Interferometry was employed to determine the equilibrium dissociation constant (KD) for compounds binding to KDM4A, using a BLI Octet RED96e instrument (Fortebio–Sartorius). Biotinylated KDM4A samples (20 μg/ml) in 10 mM Hepes, pH = 7.5, 150 mM NaCl, 0.5 mM TCEP, 5% glycerol, and 5% DMSO, were loaded onto super streptavidin (SSA) coated biosensors for at least 500 s to saturate the sensors, and then quenched with 10 µg/ml of biocytin for 60 s. Loaded SSA biosensors were then equilibrated in buffer for at least 600 s prior to baseline collection. Association was followed for at least 120 s or until plateau was reached, in a concentration range of 15.6–500 nM for the positive control, and of 3–200 µM for the negative control, and compound 1 and its analogues. Dissociation was followed for at least 300 s. All steps were performed at 25 °C with an agitation speed of 1000 rpm. QC6352 inhibitor [52] and N-[(2-chloro-6-fluorophenyl)methyl]-2-(2,5-dioxo-4-phenyl-4-propylimidazolidin-1-yl)-N-methylacetamide were used as positive and negative control, respectively. Two or three independent experiments were performed for each tested compound.
KD values were estimated by globally fitting the BLI response intensity (nm) as a function of compound concentration (μM) with the Octet Data Analysis Software, using a 1:1 Langmuir binding model.
Biotinylated KDM4A was obtained as follows. 17 nmol of purified recombinant KDM4A was mixed with 17 nmol of NHS-PEG4-Biotin (ThermoFisher Scientific 21,330) in 10 mM Hepes, pH = 7.5, 150 mM NaCl, 0.5 mM TCEP, 5% Glycerol. The solution was incubated at 4 °C for 2 h. Excess biotin was removed by 2 ml Zeba™ Spin Desalting Columns (7 K MWCO).

KDM4A [2] = target: T1, KDM4A; experiment: Enzymatic HTRF-based assay, inhibition of H3K9me3 peptide demethylation; type: biochemical; conditions: for IC50: HTRF, H3K9me3 peptide, 0.5 µM 2-OG, 400 nM KDM4A, ± standard error of fit; for inhibition at 50 µM: read-out: Inhibition at 50 μM
Procedure: The plasmid pGEX4T2-JMJD2A encoding human KDM4A residues 1–350 with a GST-6xHis tag at the N-terminal, followed by Tobacco Etch Virus (TEV) cleavage site, was used for protein expression. The plasmid was used to transform T7 Express E.coli competent cells. Cells were grown in LB media supplemented with ampicillin (100 µg/mL) at 37 °C until the OD600 reached a value around 0.4. Flasks were then cooled down and, after induction by 0.2 mM ITPG at OD600 = 0.8, bacteria were grown at 18 °C for 20 h. After centrifugation at 8000 g (20 min at 4 °C) the obtained pellets were suspended in lysis buffer (20 mM TRIS pH = 8, 0.3 M NaCl, 10 mM imidazole, 5% glycerol, 1 mM DTT, 10 µg/mL DNAse, 0.5 mg/mL lysozyme, 0.5 mM PMSF, 2 cOmplete™ EDTA-free Protease Inhibitor Cocktail, 5 mM MgCl2) and incubated at 25 °C for 1 h. Sonication (1 s ON and 1 s OFF) on ice for 7 min at 48% amplitude was performed. 0.1% Triton X-100 was added and the lysate was incubated on ice for 15 min in agitation. Soluble and insoluble phase were separated by centrifugation at 15,000 rpm, 4 °C for 30 min. Soluble phase was filtered using a 0.45 um syringe filter and directly loaded in 2 × 5 mL His-trap FF Crude column (GE Healthcare) previously equilibrated with loading buffer (20 mM TRIS, pH = 8, 0.3 M NaCl, 1 mM DTT, 10 mM imidazole, 5% glycerol). A linear gradient elution by 500 mM imidazole was done to elute bound KDM4A. In order to remove the GST-6xHis tag and imidazole excess, the eluted KDM4A was incubated with His-tagged TEV-protease (molar ratio 20:1) and dialyzed against 20 mM TRIS, pH = pH 7.5, 0.3 M NaCl, 1 mM DTT overnight at 4 °C. Tag free KDM4A was recovered reloading the dialyzed sample onto a His-trap column and collecting the flow-through. Size exclusion chromatography was used as final polishing step using a Superdex 200 grade 16/600 pg column (GE Healthcare) pre-equilibrated with 10 mM Hepes, pH = 7.5, 150 mM NaCl, 5% glycerol, 0.5 mM TCEP. Fractions containing KDM4A were pooled and concentrated to 50–100 µM, flash frozen in liquid nitrogen, and stored at − 80 °C. Protein concentration was measured by using the predicted molar extinction coefficient (ε280 = 73,800 M^−1 cm^−1), and the purity verified by SDS-PAGE resulted > 95%.
Enzymatic HTRF-based assay was run in two steps: enzymatic reaction and detection. Optimal conditions for both steps were determined by considering: plate format, time and temperature of incubation, substrate and DMSO concentrations.
Dimethyl sulfoxide (DMSO, Sigma-Aldrich D58791) final concentration was 1%. The reaction mixture was incubated for 2 h at 20 °C in ½ area 96 well plates (ref. 6002290 m, Perkin Elmer).
For the detection step, 40 μl of HTRF reagents, H3K9 me2-Eu(K) Ab (Cisbio Bioassays, 61KB2KAE) and Streptavidin XL-665 (Cisbio Bioassays, 610SAXLA), prepared in detection buffer following manufacturer’s instruction (Cisbio Assays, 62SDBRDD), were added to each well and incubated o/n at 20 °C. Fluorescence was measured with a TECAN Spark reader (Männedorf, Switzerland), by setting excitation wavelength at 320 nm and emission wavelength at 620 and 665 nm.
Automation was performed using Bravo (Agilent) liquid handling system. Validation of the assay was performed following NIH guidelines. 2,4-pyridinedicarboxylic acid monohydrate (2,4-PDCA, Sigma Aldrich P63395) was used as positive control at Imax 10 µM, and Z’ was determined on 9 independent experiments always giving a value > 0.5. The following reference compounds were used as internal controls in the screening plates: 2,4-Pyridinedicarboxylic Acid, 8-hydroxyquinoline-5-carboxylic acid, pyrido[3,4-d]pyrimidin-4(3H)-one, 3-(ethylsulfonyl)-N-(4-(pyridin-2-yl)thiazol-2-yl)benzamide, 3-(ethylsulfonyl)-N-(4-(pyridin-2-yl)thiazol-2-yl)benzamide, 3-(methylsulfonyl)-N-(4-(pyridin-2-yl)thiazol-2-yl)benzamide.

KDM4A [3] = target: T1, KDM4A; experiment: STD-NMR binding experiment; conditions: 1:50 receptor-to-ligand ratio, 7.5 µM KDM4A
Procedure: as §1
STD-NMR experiments STD-NMR spectra were recorded at 800 MHz on Bruker spectrometer and 298 K in 20 mM NaPh, pH = 7.5, 150 mM NaCl, 0.5 mM TCEP, 8% D2O, using 7.5 µM of KDM4A and 20- or 50-fold excess of each compound. A series of Gaussian-shaped pulses of 0.025 s each was employed with a total saturation time for the protein envelope of 2 s. Off-resonance frequency of d = − 40 ppm and on-resonance frequency of d = 0.07 ppm (protein aliphatic signals region) were applied. Spectra were processed and analyzed using Bruker TopSpin software.
Suppl. Fig. S5: STD-NMR analysis of compound 1. […] (i) The 1D NMR reference spectrum of compound 1. (ii) The STD-NMR spectrum of compound 1 in the presence of KDM4A. The NMR spectrum was recorded at 1:50 receptor-to-ligand ratio.

[4] = substrate: O=C(O)CCC(=O)C(=O)O; experiment: purified protein, by the assay type; conditions: other: 2-OG titrated 50 µM to 0.01 µM, Michaelis-Menten plot

Molecule	Kd (KDM4A [1])	LE (KDM4A [1])	LLE (KDM4A [1])	IC50 (KDM4A [2])	inhibition at 50 µM (KDM4A [2])	Binding to KDM4A by STD-NMR (KDM4A [3])	Km [4]
CCCNC(=O)c1cc(C(=O)O)ccn1 [Compound 6c, 2-(Propylcarbamoyl)isonicotinic acid]	10.7 ± 0.2 µM	0.48	4.18	41.6 µM	> 90%	–	–
COC(=O)c1ccnc(C(=O)NCc2ccccc2)c1 [Compound 5a, Methyl 2-(benzylcarbamoyl)isonicotinate]	–	–	–	–	< 50%	–	–
CNC(=O)c1cc(C(=O)O)ccn1 [Compound 1, 2-(methylcarbamoyl)isonicotinic acid]	15 ± 0.16 µM	0.51	4.59	7.09 µM and 7.1 µM	–	detected compound 1 binding to KDM4A	–
O=C(O)c1ccnc(C(=O)NCc2ccccc2)c1 [Compound 6a, 2-(benzylcarbamoyl)isonicotinic acid]	45 ± 1 µM	0.33	2.49	–	< 50%	–	–
O=C(O)c1ccnc(C(=O)NCc2cnco2)c1 [Compound 6b, 2-((Oxazol-5-ylmethyl)carbamoyl)isonicotinic acid]	9.5 ± 0.08 µM	0.39	4.50	25.1 µM and 25 µM	> 90%	–	–
COC(=O)c1ccnc(C(=O)NCc2nc3ccccc3n2C)c1 [Compound 5d, Methyl 2-(((1-methyl-1H-benzo[d]imidazole-2-yl)methyl)carbamoyl)isonicotinate]	55 ± 2 µM	0.24	1.88	–	< 50%	–	–
B1	–	–	–	–	–	–	0.73 ± 0.16 µM
